# Values quoted from earlier work as cited in patent US20240033215A1 (AMOS PHARM, priority 2022, published 2024).
# Like-named read-outs stand apart in the source and are kept apart here.
structure (smiles),measurement,setting,value
CC(C)Cc1ccc([C@H](C)C(=O)O)cc1 [Dexibuprofen],solubility,at acidic pH,0.078 mg/mL
same,solubility,at alkaline pH,291 mg/mL
